Data taken from patent US20250099475A1, “METHODS OF TREATING HYPERTENSION BY PERIODIC SUPPRESSION OF ALDOSTERONE SYNTHASE” (Mineralys Therapeutics, Inc., priority 2022, published 2025).
Marks after values point to notes of the source that are not given here.

What was measured:
[1] = Example 4 dose-ranging study: safety (adverse events, serum potassium, eGFR); assay type: in vivo, human
Experimental: Subjects orally administered the assigned study drug (Compound A HBr or placebo) according to the assigned dosing regimen for 8 weeks beginning on Study Day 1. All subjects in Part 1 (regardless of dosing group) received BID dosing to preserve the integrity of the blind; active drug is administered as the morning dose for all QD dose groups. Subjects returned to the research facility or were seen by the clinical investigator or approved home health care professional at the end of Study Weeks 1, 2, 3, 4, 5, 6, 7, and 8 (±2 days) for protocol-defined efficacy and safety assessments and procedures, assessment of adverse events (AEs), and confirmation of compliance with study drug usage. Subjects also completed a telephone visit and blood pressure (BP) check at home approximately 3 days post last dose of study drug. Subjects attended up to 14 full clinic visits, including a pre-Screening visit, a Screening/start of Placebo Run-in visit, a second visit during Placebo Run-in, a clinic visit to initiate the ABPM procedure, a Randomization visit, 8 weekly visits during double-blind treatment, and an end-of-study visit scheduled 4 weeks after the last study treatment for final efficacy and safety assessments.

[2] = biological target: T1, human CYP 11B1 (hCYP11B1) (Homo sapiens, UniProt P15538); experiment: Assay of hCYP11B1 inhibition (11-deoxycortisol to cortisol); assay type: biochemical; details: mitochondrial fraction of V79 cells stably expressing hCYP11B1; substrate 11-deoxycortisol; read-out: Inhibition constant (Ki) hCYP11B1
T1 construct: expressed in transfected cells; host or cells: V79 cells (mitochondrial fraction)
T1 sequence (P15538 25-503): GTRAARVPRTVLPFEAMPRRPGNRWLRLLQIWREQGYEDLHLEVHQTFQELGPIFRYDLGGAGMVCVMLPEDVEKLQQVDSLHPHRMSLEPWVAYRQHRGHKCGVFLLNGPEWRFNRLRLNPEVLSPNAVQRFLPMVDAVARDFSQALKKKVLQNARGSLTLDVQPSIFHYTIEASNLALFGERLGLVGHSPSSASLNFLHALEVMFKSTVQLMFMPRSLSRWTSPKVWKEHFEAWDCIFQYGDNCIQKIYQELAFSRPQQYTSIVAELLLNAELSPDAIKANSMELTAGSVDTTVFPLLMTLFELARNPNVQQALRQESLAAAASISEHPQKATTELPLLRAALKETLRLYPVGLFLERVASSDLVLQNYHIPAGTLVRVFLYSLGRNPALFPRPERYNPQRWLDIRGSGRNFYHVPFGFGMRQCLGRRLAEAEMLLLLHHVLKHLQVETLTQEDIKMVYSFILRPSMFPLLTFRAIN
Experimental: The inhibitory effects of Compound A on human CYP 11B1 (hCYP11B1) and human CYP11B2 (hCYP11B2) enzyme activity were evaluated by determining the enzymatic conversion rates of 11-deoxycortisol to cortisol for hCYP11B1 and 11-DOC to aldosterone for hCYP11B2.

[3] = pooled (Part 1 and Part 2) 100 mg QD safety set (n=60)

CC(=O)N[C@H]1CC[C@H](NC(=O)CN2CCN(c3nncc(-c4ccc(C)cc4)n3)CC2)CC1 [Compound A HBr]
Study drug discontinuation: Hyperkalemia, subjects (%) ([1]; 100 mg QD Pooled, N 60): 2 (3.3%)
Study drug discontinuation: Hyponatremia, subjects (%) ([1]; 100 mg QD Pooled, N 60): 1 (1.7%)
Study drug discontinuation: Hypotension, subjects (%) ([1]; 100 mg QD Pooled, N 60): 2 (3.3%)
Study drug discontinuation: Other possibly related, subjects (%) ([1]; 100 mg QD Pooled, N 60): 1 (1.7%)
Study drug discontinuation: Other unrelated, subjects (%) ([1]; 100 mg QD Pooled, N 60): 4 (6.7%)
Individuals with verified or multiple increased Serum K+ 5.2-5.5 mMol/L, number (%) ([1]; 100 mg QD, Part 1): 5 (18.5%)
Individuals with verified or multiple increased Serum K+ 5.6-6.0 mMol/L, number (%) ([1]; 100 mg QD, Part 1): 3 (10.7%)
Individuals with verified or multiple increased Serum K+ 6.1-6.5 mMol/L, number (%) ([1]; 100 mg QD, Part 1): 0
Individuals with increased Serum K+ >6.5 mMol/L, number ([1]; 100 mg QD, Part 1, isolated incident not verified by repeat measurement): 1*
Individuals with verified or multiple increased Serum K+ 5.2-5.5 mMol/L, number (%) ([1]; 100 mg QD, Part 2): 1 (4%)
Individuals with verified or multiple increased Serum K+ 5.6-6.0 mMol/L, number (%) ([1]; 100 mg QD, Part 2): 0
Individuals with verified or multiple increased Serum K+ 6.1-6.5 mMol/L, number (%) ([1]; 100 mg QD, Part 2): 0
Individuals with verified or multiple increased Serum K+ >6.5 mMol/L, number ([1]; 100 mg QD, Part 2): 0
Individuals with verified or multiple increased Serum K+ 5.2-5.5 mMol/L, number (%) ([1]; 100 mg QD, Pooled): 6 (10.3%)
Individuals with verified or multiple increased Serum K+ 5.6-6.0 mMol/L, number (%) ([1]; 100 mg QD, Pooled): 3 (5.2%)
Individuals with verified or multiple increased Serum K+ 6.1-6.5 mMol/L, number (%) ([1]; 100 mg QD, Pooled): 0
Individuals with verified or multiple increased Serum K+ >6.5 mMol/L, number ([1]; 100 mg QD, Pooled): 0
Study drug discontinuation: Hyperkalemia, subjects (%) ([1]; Part 1 100 mg QD, N 29): 2 (6.9%)
Study drug discontinuation: Hyponatremia, subjects (%) ([1]; Part 1 100 mg QD, N 29): 0
Study drug discontinuation: Hypotension, subjects (%) ([1]; Part 1 100 mg QD, N 29): 1 (3.4%)
Study drug discontinuation: Other possibly related, subjects (%) ([1]; Part 1 100 mg QD, N 29): 1 (3.4%)
Study drug discontinuation: Other unrelated, subjects (%) ([1]; Part 1 100 mg QD, N 29): 3 (6.0%)
Change in group mean serum potassium (K+), Mean ([1]; Part 1, N 26 (dose not given)): +0.50 mMol/L
Study drug discontinuation: Hyperkalemia, subjects (%) ([1]; Part 1 All active, N 159): 6 (3.8%)
Study drug discontinuation: Hyponatremia, subjects (%) ([1]; Part 1 All active, N 159): 0
Study drug discontinuation: Hypotension, subjects (%) ([1]; Part 1 All active, N 159): 2 (1.2%)
Study drug discontinuation: Other possibly related, subjects (%) ([1]; Part 1 All active, N 159): 1 (0.6%)
Study drug discontinuation: Other unrelated, subjects (%) ([1]; Part 1 All active, N 159): 11 (6.9%)
Study drug discontinuation: Hyperkalemia, subjects (%) ([1]; Part 2 100 mg QD, N 31): 0
Study drug discontinuation: Hyponatremia, subjects (%) ([1]; Part 2 100 mg QD, N 31): 1 (3.4%)
Study drug discontinuation: Hypotension, subjects (%) ([1]; Part 2 100 mg QD, N 31): 1 (2.8%)
Study drug discontinuation: Other possibly related, subjects (%) ([1]; Part 2 100 mg QD, N 31): 0
Study drug discontinuation: Other unrelated, subjects (%) ([1]; Part 2 100 mg QD, N 31): 1 (2.8%)
Change in group mean serum potassium (K+), Mean ([1]; Part 2, N 31 (dose not given)): +0.23 mMol/L
Change in group mean serum potassium (K+), Mean ([1]; Pooled, N 57 (dose not given)): +0.35 mMol/L
Study drug discontinuation: Hyperkalemia, subjects (%) ([1]; Total active, N 190): 6 (3.2%)
Study drug discontinuation: Hyponatremia, subjects (%) ([1]; Total active, N 190): 1 (0.5%)
Study drug discontinuation: Hypotension, subjects (%) ([1]; Total active, N 190): 3 (1.6%)
Study drug discontinuation: Other possibly related, subjects (%) ([1]; Total active, N 190): 1 (0.5%)
Study drug discontinuation: Other unrelated, subjects (%) ([1]; Total active, N 190): 12 (6.3%)
change in eGFR ([1]; dosing cohorts): dose-dependent and reversible reduction in eGFR
effects on serum cortisol [1, 3]: no effects on serum cortisol
episodes of hyperkalemia [1, 3]: few episodes of mild or moderate hyperkalemia and no episodes of severe hyperkalemia
serious adverse events (SAEs) related to the study medication ([1]; whole trial): No serious adverse events (SAEs) related to the study medication

CC(=O)N[C@H]1CC[C@H](NC(=O)CN2CCN(c3nncc(-c4ccc(C)cc4)n3)CC2)CC1 [Compound A]
Ki [2]: 475 nM
